Drawing on patent publication US7495017B2, “Phosphodiesterase 4 inhibitors” (Memory Pharmaceuticals Corporation, priority 2003, dated 2009), this text covers melting point for 1 compound.

For `COc1ccc(-c2ccn[nH]2)cc1O[C@@H]1CCOC1` [Example 1B, 3-[4-Methoxy-3-(3R)-tetrahydrofuranyloxyphenyl]-1H-pyrazole], the melting point is 149 to 151 °C.
